Data reported in patent US12460050B2, “Nitric oxide-releasing hyperbranched compounds as antibacterial scaffolds and methods pertaining thereto” (The University of North Carolina at Chapel Hill, priority 2017, dated 2025).

Tested on: Human gingival fibroblasts (HGF-1)
Test: In vitro cytotoxicity (MTS) of PAMAM scaffolds
Assay type: cell-based
Procedure: The toxicity of the PAMAM scaffolds to human gingival fibroblasts (HGF-1) was evaluated after 2 and 24 h exposure times. Human gingival fibroblasts (HGF-1) were grown in FibroLife fibroblast serum-free media, and incubated in 5 vol % CO2 under humidified conditions at 37° C. The cells were trypsinized at 80% confluency and seeded into tissue culture-treated polystyrene 96-well plates at a density of 10^4 cells/well. The plates were incubated for an additional 24 h at 37° C. The supernatant was aspirated and replaced with 100 μL of fresh growth medium containing various concentrations of PAMAM scaffolds. After two incubation time points (i.e., 2 and 24 h) at 37° C., the supernatant was aspirated, and the cells were washed with DPBS. A 100 μL solution of media/MTS/PMS (105/20/1, v/v/v) solution was added to each well, and incubated for 3 h at 37° C. The absorbance of the colored supernatant was quantified at 490 nm using a Thermoscientific Multiskan EX plate reader (Waltham, MA). Measurements for untreated cells (control) and media/MTS/PMS mixture (blank) were also collected. Results were expressed as percentage of relative cell viability as follows: % cell viability=[(Abs490−Absblank)□/(Abscontrol−Absblank)]×100% (Eq. 1)
A killing curve was constructed for NO-releasing and control PAMAM scaffolds by plotting % cell viability versus concentration (mg mL^−).

## Hyperbranched polyamidoamine [h-PAMAM]
  toxicity to HGF-1 (in words): most toxic
